According to PMC6756013, “B591, a novel specific pan-PI3K inhibitor, preferentially targets cancer stem cells” (Oncogene, 2019):

Columns and labels:
[1] = molecular target: T1, PI3Kα (p110α/p85α) (Homo sapiens, UniProt P42336); assay: In vitro PI3K kinase assay (PI3-Kinase Activity ELISA); format: biochemical; conditions: incubated 30 min at room temperature
T1 construct: purchased Promega
Method: (§1) Purified PI3K Class I Lipid Kinase, including p110α/p85α, p110β/p85α, p110γ, and p110δ/p85α (Promega, Madison, WI, USA), was respectively incubated with B591 for 30 min at room temperature. The activity of PI3K was evaluated using a PI3-Kinase Activity ELISA kit (K-1000s, Echelon, Salt Lake City, UT, USA) according to the manufacture’s instructions. The assay is a competitive ELISA in which the signal is inversely proportional to the amount of PI(3,4,5)P3 produced. After the PI3-Kinase reactions are complete, reaction products are first mixed and incubated with a PI(3,4,5)P3 detector protein, then added to the PI(3,4,5)P3-coated microplate for competitive binding. A peroxidase-linked secondary detector and colorimetric detection is used to detect PI(3,4,5)P3 detector binding to the plate. The colorimetric signal is inversely proportional to the amount of PI(3,4,5)P3 produced by PI3-Kinase. The absorbance was measured at 450 nm with a Multilabel Reader (PerkinElmer, Waltham, MA, USA). ATP competition assays were executed with varying concentrations of ATP, and five concentrations of ATP were 5 μM, 25 μM, 50 μM, 100 μM, and 200 μM respectively. The IC50 values for inhibition of PI3Kβ by B591 were determined at indicated concentrations of ATP. In addition, B591 selectivity was tested against 39 kinases at Life Technologies.

[2] = molecular target: T2, PI3Kβ (p110β/p85α) (Homo sapiens, UniProt P42338); assay: as above; format: biochemical
T2 construct: purchased Promega
T2 sequence (P42338 whole entry): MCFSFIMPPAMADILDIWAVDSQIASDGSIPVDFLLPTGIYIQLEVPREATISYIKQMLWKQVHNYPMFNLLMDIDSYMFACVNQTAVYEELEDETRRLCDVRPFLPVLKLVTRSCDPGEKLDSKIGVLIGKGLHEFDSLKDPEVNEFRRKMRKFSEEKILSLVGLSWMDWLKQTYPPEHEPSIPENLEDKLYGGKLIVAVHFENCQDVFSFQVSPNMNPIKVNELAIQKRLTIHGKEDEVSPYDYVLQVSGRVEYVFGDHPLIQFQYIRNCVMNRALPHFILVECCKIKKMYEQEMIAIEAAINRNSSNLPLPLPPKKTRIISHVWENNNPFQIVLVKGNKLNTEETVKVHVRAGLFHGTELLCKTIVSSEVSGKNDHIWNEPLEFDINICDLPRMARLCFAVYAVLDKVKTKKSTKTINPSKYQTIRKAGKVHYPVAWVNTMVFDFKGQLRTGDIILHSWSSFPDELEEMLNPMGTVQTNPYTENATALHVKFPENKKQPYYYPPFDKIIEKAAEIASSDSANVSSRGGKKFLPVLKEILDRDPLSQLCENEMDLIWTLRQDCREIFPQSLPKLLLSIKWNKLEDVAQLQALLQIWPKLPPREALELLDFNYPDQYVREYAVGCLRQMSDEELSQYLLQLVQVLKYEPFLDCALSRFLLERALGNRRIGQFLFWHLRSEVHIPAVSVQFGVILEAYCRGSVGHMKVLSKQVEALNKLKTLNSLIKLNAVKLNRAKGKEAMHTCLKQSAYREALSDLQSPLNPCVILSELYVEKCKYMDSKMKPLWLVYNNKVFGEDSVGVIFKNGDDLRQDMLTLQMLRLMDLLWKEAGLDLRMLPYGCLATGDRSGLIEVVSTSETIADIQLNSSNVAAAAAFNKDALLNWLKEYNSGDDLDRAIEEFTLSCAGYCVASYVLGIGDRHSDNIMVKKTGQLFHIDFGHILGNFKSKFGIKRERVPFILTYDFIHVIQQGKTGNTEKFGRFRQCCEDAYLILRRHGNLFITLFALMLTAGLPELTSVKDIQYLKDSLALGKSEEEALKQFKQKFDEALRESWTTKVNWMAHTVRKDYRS
T2 sequence (P27986 whole entry partner): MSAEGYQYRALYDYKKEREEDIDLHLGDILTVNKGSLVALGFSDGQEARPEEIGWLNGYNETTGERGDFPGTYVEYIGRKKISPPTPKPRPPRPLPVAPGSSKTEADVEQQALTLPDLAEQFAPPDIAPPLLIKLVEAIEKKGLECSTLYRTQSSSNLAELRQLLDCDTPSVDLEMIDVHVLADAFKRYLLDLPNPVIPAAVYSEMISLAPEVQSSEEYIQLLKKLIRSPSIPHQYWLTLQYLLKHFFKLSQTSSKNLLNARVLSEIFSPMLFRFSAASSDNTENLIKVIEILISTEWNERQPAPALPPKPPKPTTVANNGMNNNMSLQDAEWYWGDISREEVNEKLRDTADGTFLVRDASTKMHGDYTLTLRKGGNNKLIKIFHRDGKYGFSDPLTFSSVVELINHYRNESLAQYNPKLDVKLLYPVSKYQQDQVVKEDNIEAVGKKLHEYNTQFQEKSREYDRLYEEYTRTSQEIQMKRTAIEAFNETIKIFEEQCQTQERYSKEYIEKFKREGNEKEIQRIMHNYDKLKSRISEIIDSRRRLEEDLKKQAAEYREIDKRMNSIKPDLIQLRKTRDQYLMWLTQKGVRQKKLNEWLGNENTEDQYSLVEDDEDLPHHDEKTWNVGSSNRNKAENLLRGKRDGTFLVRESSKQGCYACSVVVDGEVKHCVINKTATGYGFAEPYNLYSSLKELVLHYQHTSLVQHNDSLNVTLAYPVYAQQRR
Method: as §1

[3] = molecular target: T3, PI3Kγ (p110γ) (Homo sapiens, UniProt P48736); assay: as above; format: biochemical; conditions: incubated 30 min at room temperature
T3 construct: purchased Promega
T3 sequence (P48736 whole entry): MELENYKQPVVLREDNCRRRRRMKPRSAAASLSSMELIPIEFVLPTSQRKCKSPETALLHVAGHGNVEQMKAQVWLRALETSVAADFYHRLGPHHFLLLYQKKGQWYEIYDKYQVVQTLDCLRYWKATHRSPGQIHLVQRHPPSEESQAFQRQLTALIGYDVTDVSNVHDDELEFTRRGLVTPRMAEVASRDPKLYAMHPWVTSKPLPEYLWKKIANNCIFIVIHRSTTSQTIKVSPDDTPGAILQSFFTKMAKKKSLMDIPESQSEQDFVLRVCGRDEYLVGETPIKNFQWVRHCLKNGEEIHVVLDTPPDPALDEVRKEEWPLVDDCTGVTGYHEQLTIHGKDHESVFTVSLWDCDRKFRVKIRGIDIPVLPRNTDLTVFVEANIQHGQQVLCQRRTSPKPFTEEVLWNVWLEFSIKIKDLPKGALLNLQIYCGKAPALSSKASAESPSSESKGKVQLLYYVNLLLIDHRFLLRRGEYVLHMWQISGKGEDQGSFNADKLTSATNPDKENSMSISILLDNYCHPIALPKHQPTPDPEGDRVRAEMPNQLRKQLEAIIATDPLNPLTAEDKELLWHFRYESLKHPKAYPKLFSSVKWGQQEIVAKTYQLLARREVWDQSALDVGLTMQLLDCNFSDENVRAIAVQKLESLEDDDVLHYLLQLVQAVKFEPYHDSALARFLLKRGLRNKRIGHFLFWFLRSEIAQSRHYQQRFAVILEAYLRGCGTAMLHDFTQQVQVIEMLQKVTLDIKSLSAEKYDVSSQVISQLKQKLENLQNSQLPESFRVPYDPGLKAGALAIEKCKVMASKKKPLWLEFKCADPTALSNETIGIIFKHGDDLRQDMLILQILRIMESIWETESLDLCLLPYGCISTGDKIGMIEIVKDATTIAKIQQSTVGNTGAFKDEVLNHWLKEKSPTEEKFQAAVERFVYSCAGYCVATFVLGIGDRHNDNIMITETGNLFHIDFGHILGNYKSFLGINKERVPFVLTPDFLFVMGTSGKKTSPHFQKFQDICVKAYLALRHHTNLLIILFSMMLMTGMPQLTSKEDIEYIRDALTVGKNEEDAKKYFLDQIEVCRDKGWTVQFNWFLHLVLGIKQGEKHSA
Method: as §1

[4] = molecular target: T4, PI3Kδ (p110δ/p85α) (Homo sapiens, UniProt O00329); assay: as above; format: biochemical; conditions: incubated 30 min at room temperature
T4 construct: purchased Promega
T4 sequence (O00329 whole entry): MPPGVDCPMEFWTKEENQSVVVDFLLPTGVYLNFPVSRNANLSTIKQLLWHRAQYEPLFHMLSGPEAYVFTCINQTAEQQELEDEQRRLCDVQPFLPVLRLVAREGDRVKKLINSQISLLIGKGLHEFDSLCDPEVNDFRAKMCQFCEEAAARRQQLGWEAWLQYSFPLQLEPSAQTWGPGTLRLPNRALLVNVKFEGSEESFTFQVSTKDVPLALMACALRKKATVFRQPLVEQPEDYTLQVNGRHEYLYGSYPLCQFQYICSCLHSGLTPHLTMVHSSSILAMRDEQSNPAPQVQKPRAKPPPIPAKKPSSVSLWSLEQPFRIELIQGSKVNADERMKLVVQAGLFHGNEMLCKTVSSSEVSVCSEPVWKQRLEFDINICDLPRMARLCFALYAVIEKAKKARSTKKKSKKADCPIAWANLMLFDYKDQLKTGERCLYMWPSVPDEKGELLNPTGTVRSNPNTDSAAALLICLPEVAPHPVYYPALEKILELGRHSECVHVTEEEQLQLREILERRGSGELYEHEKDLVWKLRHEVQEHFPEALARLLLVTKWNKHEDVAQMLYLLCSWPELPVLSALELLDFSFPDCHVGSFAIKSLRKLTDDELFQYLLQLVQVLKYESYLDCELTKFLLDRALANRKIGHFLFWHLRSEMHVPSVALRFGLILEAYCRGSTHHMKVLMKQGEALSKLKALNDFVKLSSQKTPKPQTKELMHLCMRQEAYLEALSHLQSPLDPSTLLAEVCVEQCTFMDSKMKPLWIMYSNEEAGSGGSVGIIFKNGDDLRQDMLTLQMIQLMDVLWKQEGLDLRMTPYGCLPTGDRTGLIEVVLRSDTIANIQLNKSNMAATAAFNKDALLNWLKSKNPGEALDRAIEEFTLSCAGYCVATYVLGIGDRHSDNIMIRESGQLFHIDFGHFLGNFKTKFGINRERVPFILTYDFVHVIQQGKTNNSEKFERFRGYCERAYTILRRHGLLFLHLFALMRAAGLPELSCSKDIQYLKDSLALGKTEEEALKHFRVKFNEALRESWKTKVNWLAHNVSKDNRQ
T4 sequence (P27986 whole entry partner): as the sequence (P27986 whole entry partner) above
Method: as §1

[5] = system: SUM-159PT, MCF7 and MDA-MB-231 mammospheres; assay: Mammosphere formation assay; format: cell-based, human; conditions: treated 5 days
Method: Fig. 4 B591 inhibits CSCs and tumorigenesis. a B591 inhibited mammosphere-formation of SUM-159PT, MCF7, and MDA-MB-231 cells. Mammospheres were cultured as described in Materials and methods section. […] The mammospheres were subsequently passaged for another two generations and each generation of the mammospheres were cultured for 5 days without B591 and then counted under a phase-contrast microscopy. The relative mammosphere-formation ability is shown as percentage, and data represent mean ± SD from three independent experiments. c, d Representative flow cytometry plots show the effect of B591 on CD44^high/CD24^low (c) and ALDH^high (d) breast CSCs population from SUM-159PT cells. e Quantification of flow cytometry analysis of CD44^high/CD24^low and ALDH^high breast CSCs population from SUM-159PT cells. […] The live cells were collected and counted, the same amount of control cells and B591-treated cells were then incubated into the fourth left and right mammary fat pad of mice, respectively, according the indicated number for each group. Tumors were inspected 3 months later, and the tumor initiating frequency (TIF) was calculated with ELDA software. […]
In mammosphere formation assay, mammospheres were cultured in the presence of B591 for 5 days as described above and then were counted and imaged under a phase-contrast microscopy (Nikon, Japan).

[6] = system: SUM-159PT orthotopic xenografts; assay: Tumor recurrence study in SUM-159PT xenografts; format: in vivo, NOD/SCID mice; conditions: B591 10 mg/kg
Method: Fig. 6 B591 reduces breast tumor metastasis and recurrence. a Representative images show the effect of B591 (8 mg/kg) on lung metastasis of 4T1 cells, and data from six mice were plotted. b SUM-159PT cells were respectively treated with the indicated agents (8 nM Paclitaxel, 8 nM Paclitaxel plus 5 μM B591) for 24 h, the cells were then cultured for mammospheres. Representative images were shown, and data from two independent experiments were plotted. c–f SUM-159PT xenografts (n = 7) were treated with 4 mg/kg Paclitaxel, or 10 mg/kg B591, or both for 2 weeks, then ended the treatment and waited for tumor recurrence. Tumor volume (c) and body weight (d) were measured every 2 days after treatment, and tumors were photographed (e) and weighted (f) at the end of the experiment. ^*p < 0.05, ^**p < 0.01 versus indicated groups
In the tumor recurrence study, orthotopic xenografts were established with 5 × 10^6 SUM-159PT cells. When tumor volume reached about 50 mm^3, mice were randomly divided into four groups for treatment with vehicle, 4 mg/kg Paclitaxel, 10 mg/kg B591, and combination of 4 mg/kg Paclitaxel plus 10 mg/kg B591 (i.p.). Treatment was stopped after 2 weeks, and the tumors were allowed for recurrence for 3 weeks. Tumor volume and the body weight of mice were measured during the experiments. In the end of treatment, the mice were killed, and the tumor tissues were dissected and weighted.

T1 sequence (P42336 whole entry): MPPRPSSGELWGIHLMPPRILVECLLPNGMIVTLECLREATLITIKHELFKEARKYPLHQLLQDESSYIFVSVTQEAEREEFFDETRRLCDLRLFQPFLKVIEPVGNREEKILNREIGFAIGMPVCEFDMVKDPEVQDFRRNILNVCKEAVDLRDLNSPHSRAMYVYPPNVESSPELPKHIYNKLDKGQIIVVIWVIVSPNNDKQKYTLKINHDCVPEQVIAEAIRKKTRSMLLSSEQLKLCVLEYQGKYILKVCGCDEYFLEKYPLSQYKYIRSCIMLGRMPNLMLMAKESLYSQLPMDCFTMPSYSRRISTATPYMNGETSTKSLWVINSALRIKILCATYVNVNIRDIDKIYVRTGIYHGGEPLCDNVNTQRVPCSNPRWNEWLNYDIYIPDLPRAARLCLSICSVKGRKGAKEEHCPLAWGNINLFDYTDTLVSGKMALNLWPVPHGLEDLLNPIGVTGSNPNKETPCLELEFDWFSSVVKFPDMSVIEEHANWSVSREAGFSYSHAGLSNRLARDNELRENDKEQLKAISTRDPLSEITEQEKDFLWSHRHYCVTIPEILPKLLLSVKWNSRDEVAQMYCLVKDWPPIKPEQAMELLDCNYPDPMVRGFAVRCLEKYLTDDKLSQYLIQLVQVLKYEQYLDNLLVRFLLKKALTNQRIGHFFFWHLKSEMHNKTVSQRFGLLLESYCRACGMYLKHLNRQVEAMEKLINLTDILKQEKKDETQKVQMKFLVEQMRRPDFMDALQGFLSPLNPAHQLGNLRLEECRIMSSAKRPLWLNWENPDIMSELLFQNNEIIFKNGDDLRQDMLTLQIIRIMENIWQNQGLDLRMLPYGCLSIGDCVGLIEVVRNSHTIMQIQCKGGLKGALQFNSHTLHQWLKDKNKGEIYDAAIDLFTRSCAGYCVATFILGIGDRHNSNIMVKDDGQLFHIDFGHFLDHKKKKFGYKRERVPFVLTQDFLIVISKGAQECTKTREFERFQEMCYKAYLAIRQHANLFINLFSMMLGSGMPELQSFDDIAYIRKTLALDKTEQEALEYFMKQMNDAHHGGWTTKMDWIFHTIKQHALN
T1 sequence (P27986 whole entry partner): as the sequence (P27986 whole entry partner) above

IC50 [1]: 1300 ± 270 nM
Mode of inhibition (IC50 for PI3Kβ at various concentrations of ATP) ([2]; ATP 5, 25, 50, 100 and 200 μM): ATP-competitive inhibitor
IC50 ([2]; PI3-Kinase Activity ELISA, incubated 30 min at room temperature): 364 ± 130 nM
IC50 [3]: 107 ± 70 nM
IC50 [4]: 1580 ± 160 nM
Structure (SMILES): Cc1cc2c(cc1C)[n+](Cc1ccccc1Br)cn2Cc1ccc2c(c1)CCO2.[Br-] [B591, 3-(2-bromobenzyl)-1-((2,3-dihydrobenzofuran-5-yl)methyl) -5,6-dimethyl-1H-benzo[d]imidazol-3-ium bromide]
Size and number of primary mammospheres [5]: reduced by B591 in a concentration-dependent manner
Body weight ([6]; with or without paclitaxel 4 mg/kg): no significant body weight loss
Tumor growth and regrowth after end of treatment ([6]; paclitaxel 4 mg/kg, i.p., 2 weeks, then 3 weeks recurrence): significant inhibition of tumor growth and notably delayed the relapse of breast cancer following cessation of paclitaxel treatment
